According to patent US11672758B2, “Endoxifen methods and compositions for inhibition of protein kinase C” (Jina Pharmaceuticals, Inc., priority 2006, dated 2023):
Where “and” joins values, the source holds several entries; their conditions need not be identical. Equal entries are not always repeated. Where two headings read alike, the source gives them in different places.

Experiments:
[1] = cited from earlier work
male Balb/c mice = experiment: Toxicity testing, intravenous single and repeat dose in mice; format: in vivo
Protocol: Endoxifen was formulated according to Example 6 and was tested for toxicity in male Balb/c mice. A single test dose at 100 mg/kg or 50 mg/kg was intravenously administered to mice. […] The mice also survived in the control group with a vehicle control that lacked endoxifen. Repeat dose toxicity study was conducted with a dose of 25 mg/kg administered consecutively for 3 days with accumulated dose of 75 mg/kg. […] The results are reported in the table below as the number of mice surviving per total.

[2] = Comparative pharmacokinetic study in rats; format: in vivo; details: oral 10 mg/kg endoxifen versus 10 mg/kg tamoxifen
PKC = PKC kinase activity assay kit (Assay Designs); format: biochemical; details: for percentage PKC inhibition: PKC 10 ng/well
Protocol: A PKC kinase activity assay kit (Assay Designs, Ann Arbor, Mich.) was used to test endoxifen PKC inhibitory activity 0.025, 0.05, 0.1, or 0.2 mM endoxifen was used in a reaction mix containing PKC 10 ng/well.

patients = patients on raloxifene for osteoporosis; cited from earlier work
Parkinsonian monkeys = details: co-administered with levodopa to Parkinsonian monkeys; cited from earlier work

4-hydroxy tamoxifen [4-OH-tamoxifen, reference compound]
concentration in the human plasma ([1]; human, in vivo): 1 ng/mL

CC/C(=C(\c1ccc(O)cc1)c1ccc(OCCNC)cc1)c1ccccc1 [Endoxifen, 4-hydroxy N-desmethyl tamoxifen]
Survival/Total (male Balb/c mice; repeat dose 25 mg/kg consecutively for 3 days, accumulated dose 75 mg/kg): 4/4 | loss of body weight (male Balb/c mice; single dose 50 mg/kg intravenous): no significant loss of body weight | Survival/Total (male Balb/c mice; single dose 50 mg/kg intravenous, formulated according to Example 6, 50 mg/kg): all animals survived and 4/4 | Survival/Total (male Balb/c mice; single dose 100 mg/kg intravenous, formulated according to Example 6, 100 mg/kg): All the mice died and 0/2 | endoxifen plasma concentration compared to that after same dose of tamoxifen [2]: 10 fold | percentage PKC inhibition (PKC; 0.2 mM): 80% | percentage PKC inhibition (PKC; […]): 12% | potency as PKC inhibitor relative to tamoxifen (PKC; endoxifen versus tamoxifen): at least four fold more potent | concentration in the human plasma ([1]; patients treated with tamoxifen): 12.4 ng/mL

O=C(c1ccc(OCCN2CCCCC2)cc1)c1c(-c2ccc(O)cc2)sc2cc(O)ccc12 [raloxifene]
reduction in risk of mild cognitive impairment (patients): 33%

CC/C(=C(\c1ccccc1)c1ccc(OCCN(C)C)cc1)c1ccccc1 [tamoxifen, reference compound]
attenuation of levodopa-induced dyskinesias (Parkinsonian monkeys): 61%
